Results on 27 compounds are retold here after US7709471B2, “Compounds” (AstraZeneca AB, priority 2006, dated 2010).

Where a name gives a salt, the structure may show the parent alone. Read-outs that look alike come from different tables or passages of the source.

In experiment [1] the target is recombinant Plk1 (Homo sapiens, UniProt P53350). Kind of experiment: In Vitro Plk1 Enzyme Assay (SPA, GST-Cdc25C phosphorylation). In kind it is biochemical. Particulars: ATP 64 nM, 90 minutes, read-out: IC50 (Plk1 enzyme inhibition).
For experiment [2], the system named is human colon tumour cell line HT29. The experiment in a line: Cellular Assay (phosphohistone H3 Ser10 mitotic marker, HT29). The experiment is classed as cell-based. Conditions: HT-29, 24 h, HT29 cells.
Description: Chromosome condensation in mitosis is accompanied by phosphorylation of histone H3 on serine 10.
After 24 hours, cells were fixed in 3.7% (v/v) formaldehyde then permeabilised and blocked for 10 minutes in 100 μl 0.5% (v/v) Triton X-100, 1% (w/v) bovine serum albumin (BSA) in phosphate buffered saline (PBS). […] The raw assay data were analysed by non-linear regression analysis and used to determine an IC50 value for each compound.
[3] abbreviates: read-out: IC50 (cellular assay, phosphohistone H3).

recombinant Plk1, sequence (P53350 whole entry): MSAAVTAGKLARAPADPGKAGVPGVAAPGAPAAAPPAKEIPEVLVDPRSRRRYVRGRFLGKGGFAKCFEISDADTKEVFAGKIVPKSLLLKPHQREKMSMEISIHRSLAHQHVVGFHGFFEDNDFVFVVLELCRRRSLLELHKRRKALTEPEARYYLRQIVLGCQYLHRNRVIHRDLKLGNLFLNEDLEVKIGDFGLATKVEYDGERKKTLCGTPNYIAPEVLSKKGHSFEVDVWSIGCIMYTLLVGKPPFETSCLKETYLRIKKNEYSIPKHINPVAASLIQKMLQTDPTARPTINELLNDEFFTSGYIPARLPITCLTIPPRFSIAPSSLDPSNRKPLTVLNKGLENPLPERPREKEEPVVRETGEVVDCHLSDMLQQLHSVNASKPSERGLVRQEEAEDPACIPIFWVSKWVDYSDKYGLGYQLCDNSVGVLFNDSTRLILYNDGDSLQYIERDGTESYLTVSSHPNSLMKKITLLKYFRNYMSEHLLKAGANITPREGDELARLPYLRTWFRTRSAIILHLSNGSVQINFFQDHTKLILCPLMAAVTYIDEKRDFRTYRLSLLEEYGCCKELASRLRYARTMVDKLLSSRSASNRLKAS

The term IC50 denotes the midpoint of a concentration-inhibition curve. Regarding `CCC1CN(C2CCCC2)c2nc(Nc3ccc(C(=O)NC4CCN(C)CC4)cc3OC)ncc2N(C)C1=O` (single isomer, unassigned) [Example 236], the IC50 in experiment [1] and in experiment [2] (setting [3]) was under 300 nM each time.
On to `CCCC1CN(C2CCCC2)c2nc(Nc3ccc(C(=O)NC4CCN(C)CC4)cc3OC)ncc2N(C)C1=O` (single isomer, unassigned) [Example 238], for which the IC50 in experiment [1] and in experiment [2] (setting [3]) was under 1000 nM in each case.
For `COc1cc(C(=O)NC2CCN(C)CC2)ccc1Nc1ncc2c(n1)N(C1CCCC1)CC(C)C(=O)N2C` (single isomer, unassigned) [Example 240], the IC50 in experiment [1] and in experiment [2] (setting [3]) was under 300 nM each time.
As for `COc1cc(C(=O)NC2CCN(C)CC2)ccc1Nc1ncc2c(n1)N(C1CCCC1)CCCN2C` [Example 4, 4-[(2-Cyclopentyl-6-methyl-2,6,9,11-tetrazabicyclo[5.4.0]undeca-8,10,12-trien-10-yl)amino]-3-methoxy-N-(1-methyl-4-piperidyl)benzamide], the figures for the IC50 in experiment [1] and in experiment [2] (setting [3]) were under 100000 nM and under 1000 nM, respectively.
With `COc1cc(C(=O)NC2CCN(C)CC2)ccc1Nc1ncc2c(n1)N(C)CCC(=O)N2C` [Example 5, 4-[(2,6-Dimethyl-5-oxo-2,6,9,11-tetrazabicyclo[5.4.0]undeca-7,9,11-trien-10-yl)amino]-3-methoxy-N-(1-methyl-4-piperidyl)benzamide], the IC50 in experiment [1] was under 300 nM; in experiment [2] (setting [3]), under 30000 nM.
For `COc1cc(C(=O)NC2CCN(C)CC2)ccc1Nc1ncc2c(n1)N(C(C)C)CCC(=O)N2C` [Example 6, 3-Methoxy-4-[(6-methyl-5-oxo-2-propan-2-yl-2,6,9,11-tetrazabicyclo[5.4.0]undeca-7,9,11-trien-10-yl)amino]-N-(1-methyl-4-piperidyl)benzamide], the IC50 in experiment [1] and in experiment [2] (setting [3]) was under 300 nM each time.
Regarding `COc1cc(C(=O)NC2CCN(C)CC2)ccc1Nc1ncc2c(n1)N(CCC(C)C)CCC(=O)N2C` [Example 7, 3-Methoxy-4-[[6-methyl-2-(3-methylbutyl)-5-oxo-2,6,9,11-tetrazabicyclo[5.4.0]undeca-7,9,11-trien-10-yl]amino]-N-(1-methyl-4-piperidyl)benzamide], the IC50 in experiment [1] and in experiment [2] (setting [3]) was under 1000 nM each time.
With `COc1cc(C(=O)NCC(C)(C)CN(C)C)ccc1Nc1ncc2c(n1)N(C1CCCC1)CCC(=O)N2C` [Example 10, 4-[(2-Cyclopentyl-6-methyl-5-oxo-2,6,9,11-tetrazabicyclo[5.4.0]undeca-8,10,12-trien-10-yl)amino]-N-(3-dimethylamino-2,2-dimethyl-propyl)-3-methoxy-benzamide hydrochloride], the IC50 in experiment [1] and in experiment [2] (setting [3]) was under 300 nM throughout.
`COc1cc(C(=O)NC2CCN(C3CC3)CC2)ccc1Nc1ncc2c(n1)N(C1CCCC1)CCC(=O)N2C` [Example 11, 4-[(6-cyclopentyl-2-methyl-3-oxo-2,6,8,10-tetrazabicyclo[5.4.0]undeca-8,10,12-trien-9-yl)amino]-N-(1-cyclopropyl-4-piperidyl)-3-methoxy-benzamide]: the IC50 in experiment [1] and in experiment [2] (setting [3]) was under 300 nM each time.
As for `COc1cc(C(=O)NCCN2CCOCC2)ccc1Nc1ncc2c(n1)N(C1CCCC1)CCC(=O)N2C` [Example 13, 4-[(6-cyclopentyl-2-methyl-3-oxo-2,6,8,10-tetrazabicyclo[5.4.0]undeca-8,10,12-trien-9-yl)amino]-3-methoxy-N-(2-morpholin-4-ylethyl)benzamide], the IC50 in experiment [1] and in experiment [2] (setting [3]) was under 300 nM each time.
With `COc1cc(C(=O)NCCN(C)C)ccc1Nc1ncc2c(n1)N(C1CCCC1)CCC(=O)N2C` [Example 14, 4-[(6-cyclopentyl-2-methyl-3-oxo-2,6,8,10-tetrazabicyclo[5.4.0]undeca-8,10,12-trien-9-yl)amino]-N-(2-dimethylaminoethyl)-3-methoxy-benzamide], the IC50 is under 300 nM in experiment [1], 92 nM in experiment [2] (read-out: Cell IC50) and under 300 nM in experiment [2] (setting [3]).
As to `CCN1CCCC1CNC(=O)c1ccc(Nc2ncc3c(n2)N(C2CCCC2)CCC(=O)N3C)c(OC)c1` (stereo not shown) [Example 15, 4-[(6-cyclopentyl-2-methyl-3-oxo-2,6,8,10-tetrazabicyclo[5.4.0]undeca-8,10,12-trien-9-yl)amino]-N-[(1-ethylpyrrolidin-2-yl)methyl]-3-methoxy-benzamide], the IC50 in experiment [1] and in experiment [2] (setting [3]) was under 300 nM in each case.
For `CCN(CC)CCCC(C)NC(=O)c1ccc(Nc2ncc3c(n2)N(C2CCCC2)CCC(=O)N3C)c(OC)c1` (stereo not shown) [Example 17, 4-[(6-cyclopentyl-2-methyl-3-oxo-2,6,8,10-tetrazabicyclo[5.4.0]undeca-8,10,12-trien-9-yl)amino]-N-(5-diethylaminopentan-2-yl)-3-methoxy-benzamide], the IC50 in experiment [1] and in experiment [2] (setting [3]) was under 300 nM throughout.
With `CCN(CC)CCNC(=O)c1ccc(Nc2ncc3c(n2)N(C2CCCC2)CCC(=O)N3C)c(OC)c1` [Example 18, 4-[(6-cyclopentyl-2-methyl-3-oxo-2,6,8,10-tetrazabicyclo[5.4.0]undeca-8,10,12-trien-9-yl)amino]-N-(2-diethylaminoethyl)-3-methoxy-benzamide], the IC50 in experiment [1] and in experiment [2] (setting [3]) was under 300 nM each time.
With `COc1cc(C(=O)NCCCN2CCN(C)CC2)ccc1Nc1ncc2c(n1)N(C1CCCC1)CCC(=O)N2C` [Example 20, 4-[(6-cyclopentyl-2-methyl-3-oxo-2,6,8,10-tetrazabicyclo[5.4.0]undeca-8,10,12-trien-9-yl)amino]-3-methoxy-N-[3-(4-methylpiperazin-1-yl)propyl]benzamide], the IC50 in experiment [1] and in experiment [2] (setting [3]) was under 300 nM throughout.
Regarding `COc1cc(C(=O)NCCCCN(C)C)ccc1Nc1ncc2c(n1)N(C1CCCC1)CCC(=O)N2C` [Example 21, 4-[(6-cyclopentyl-2-methyl-3-oxo-2,6,8,10-tetrazabicyclo[5.4.0]undeca-8,10,12-trien-9-yl)amino]-N-(4-dimethylaminobutyl)-3-methoxy-benzamide], the IC50 in experiment [1] and in experiment [2] (setting [3]) was under 300 nM in each case.
As for `COc1cc(C(=O)NC2CN3CCC2CC3)ccc1Nc1ncc2c(n1)N(C1CCCC1)CCC(=O)N2C` (stereo not shown) [Example 22, N-(1-azabicyclo[2.2.2]oct-8-yl)-4-[(6-cyclopentyl-2-methyl-3-oxo-2,6,8,10-tetrazabicyclo[5.4.0]undeca-8,10,12-trien-9-yl)amino]-3-methoxy-benzamide], the IC50 in experiment [1] and in experiment [2] (setting [3]) was under 300 nM throughout.
For the compound `COc1cc(C(=O)NCCCN2CCOCC2)ccc1Nc1ncc2c(n1)N(C1CCCC1)CCC(=O)N2C` [Example 25, 4-[(6-cyclopentyl-2-methyl-3-oxo-2,6,8,10-tetrazabicyclo[5.4.0]undeca-8,10,12-trien-9-yl)amino]-3-methoxy-N-(3-morpholin-4-ylpropyl)benzamide], the IC50 in experiment [1] and in experiment [2] (setting [3]) was under 300 nM throughout.
For `COCCN1CCC(NC(=O)c2ccc(Nc3ncc4c(n3)N(C3CCCC3)CCC(=O)N4C)c(OC)c2)CC1` [Example 29, 4-[(6-cyclopentyl-2-methyl-3-oxo-2,6,8,10-tetrazabicyclo[5.4.0]undeca-8,10,12-trien-9-yl)amino]-3-methoxy-N-[1-(2-methoxyethyl)-4-piperidyl]benzamide], the IC50 in experiment [1] and in experiment [2] (setting [3]) was under 300 nM each time.
Take `CCN(CC)CCCCNC(=O)c1ccc(Nc2ncc3c(n2)N(C2CCCC2)CCC(=O)N3C)c(OC)c1` [Example 30, 4-[(6-cyclopentyl-2-methyl-3-oxo-2,6,8,10-tetrazabicyclo[5.4.0]undeca-8,10,12-trien-9-yl)amino]-N-(4-diethylaminobutyl)-3-methoxy-benzamide]: the IC50 in experiment [1] and in experiment [2] (setting [3]) was under 300 nM in each case.
On to `COc1cc(C(=O)NCCCCn2ccnc2)ccc1Nc1ncc2c(n1)N(C1CCCC1)CCC(=O)N2C` [Example 31, 4-[(6-cyclopentyl-2-methyl-3-oxo-2,6,8,10-tetrazabicyclo[5.4.0]undeca-8,10,12-trien-9-yl)amino]-N-(4-imidazol-1-ylbutyl)-3-methoxy-benzamide], for which the IC50 was under 1000 nM in experiment [1] and under 300 nM in experiment [2] (setting [3]).
In the case of `Cc1nc(Nc2ncc3c(n2)N(C2CCCC2)CCC(=O)N3C)sc1C(=O)NC1CCN(C)CC1` [Example 262, 2-[(6-cyclopentyl-2-methyl-3-oxo-2,6,8,10-tetrazabicyclo[5.4.0]undeca-8,10,12-trien-9-yl)amino]-4-methyl-N-(1-methyl-4-piperidyl)1,3-thiazole-5-carboxamide], in experiment [1], the IC50 is under 1000 nM.
For the compound `CN1C(=O)CCN(C2CCCC2)c2nc(Nc3ccc(Cl)nc3)ncc21` [Example 266, 9-[(6-chloropyridin-3-yl)amino]-6-cyclopentyl-2-methyl-2,6,8,10-tetrazabicyclo[5.4.0]undeca-8,10,12-trien-3-one], in experiment [1], the IC50 was under 100000 nM.
Turning to `COc1ccc(Nc2ncc3c(n2)N(C2CCCC2)CCC(=O)N3C)cn1` [Example 267, 6-cyclopentyl-9-[(6-methoxypyridin-3-yl)amino]-2-methyl-2,6,8,10-tetrazabicyclo[5.4.0]undeca-8,10,12-trien-3-one], the IC50 in experiment [1] was under 1000 nM.
With `CN1C(=O)CCN(C2CCCC2)c2nc(Nc3ccncc3)ncc21` [Example 268, 6-cyclopentyl-2-methyl-9-(pyridin-4-ylamino)-2,6,8,10-tetrazabicyclo[5.4.0]undeca-8,10,12-trien-3-one], the IC50 in experiment [1] is under 100000 nM.
Take `COc1cc(C(=O)NC2CCN(C)CC2)ccc1Nc1ncc2c(n1)N(Cc1c(C)noc1C)CCC(=O)N2C` [Example 273, 4-[[2-[(3,5-dimethyl-1,2-oxazol-4-yl)methyl]-6-methyl-5-oxo-2,6,9,11-tetrazabicyclo[5.4.0]undeca-7,9,11-trien-10-yl]amino]-3-methoxy-N-(1-methyl-4-piperidyl)benzamide]: the IC50 in experiment [1] was under 100000 nM.
Turning to `COc1cc(C(=O)NC2CCCCC2)ccc1Nc1ncc2c(n1)N(CCN1CCCCC1)CCC(=O)N2C` [Example 276, N-cyclohexyl-3-methoxy-4-[[6-methyl-5-oxo-2-[2-(1-piperidyl)ethyl]-2,6,9,11-tetrazabicyclo[5.4.0]undeca-7,9,11-trien-10-yl]amino]benzamide], in experiment [1], the IC50 was under 100000 nM.
